Assay results published in patent publication US10004701B2, “Methods and compositions for treating infection” (UNIVERSITY OF ROCHESTER, priority 2012, dated 2018).
Counter-ions that a name gives are not always drawn. Like-named read-outs stand apart in the source and are kept apart here.

How the values were obtained:
Test in all cases: AK assay 384-well format, Prestwick library screening
[1] = tested on: K. pneumoniae; type: cell-based, Klebsiella pneumoniae; details: Klebsiella pneumoniae, 3 h
[2] = tested on: P. aeruginosa; type: cell-based, Pseudomonas aeruginosa; details: Pseudomonas aeruginosa, 3 h
[3] = tested on: A. baumannii strain 98-37-09; type: cell-based, Acinetobacter baumannii; details: Acinetobacter baumannii, 983709, 3 h
[4] = tested on: S. aureus strain USA300-0114; type: cell-based, Staphylococcus aureus; details: Staphylococcus aureus, USA300, 3 h
[5] = tested on: E. coli; type: cell-based, Escherichia coli; details: Escherichia coli, 3 h
[6] = tested on: E. faecium; type: cell-based, Enterococcus faecium; details: Enterococcus faecium, 3 h
[7] = tested on: E. cloacae; type: cell-based, Enterobacter cloacae; details: Enterobacter cloacae, 3 h
[8] = 50 μM final drug concentration, planktonic, cutoff for positive 3-fold increase, read-out: AK-based Prestwick Library Screening Results, K. pneumoniae (fold increase in extracellular AK activity)
[9] = 50 μM final drug concentration, planktonic, cutoff for positive 3-fold increase, read-out: AK-based Prestwick Library Screening Results, P. aeruginosa (fold increase in extracellular AK activity)
[10] = 50 μM final drug concentration, planktonic, cutoff for positive 3-fold increase, read-out: AK-based Prestwick Library Screening Results, A. baumannii (fold increase in extracellular AK activity)
[11] = 50 μM final drug concentration, planktonic, cutoff for positive 3-fold increase, read-out: AK-based Prestwick Library Screening Results, S. aureus (fold increase in extracellular AK activity)
[12] = 50 μM final drug concentration, planktonic, cutoff for positive 3-fold increase, read-out: AK-based Prestwick Library Screening Results, E. coli (fold increase in extracellular AK activity)
[13] = 50 μM final drug concentration, planktonic, cutoff for positive 3-fold increase, read-out: AK-based Prestwick Library Screening Results, E. faecium (fold increase in extracellular AK activity)
[14] = 50 μM final drug concentration, planktonic, cutoff for positive 3-fold increase, read-out: AK-based Prestwick Library Screening Results, E. cloacae (fold increase in extracellular AK activity)

## NCc1ccccc1CC(=O)N[C@@H]1C(=O)N2C(C(=O)O)=C(CSc3nnnn3CC(=O)O)CS[C@H]12 [Ceforanide]
[1]; [8]
  fold induction at 50 µM: 3.1
[2]; [9]
  fold induction at 50 µM: 1.2
[3]; [10]
  fold induction at 50 µM: 1.8
[4]; [11]
  fold induction at 50 µM: 1.8
[5]; [12]
  fold induction at 50 µM: 12.2
[6]; [13]
  fold induction at 50 µM: 1
[7]; [14]
  fold induction at 50 µM: 1.9

## CNNCc1ccc(C(=O)NC(C)C)cc1 [Procarbazine hydrochloride]
[1]; planktonic K. pneumoniae, 50 μM final drug concentration, positive cutoff 3-fold increase, read-out: AK-based Prestwick library screening result, K. pneumoniae (fold increase in extracellular AK activity)
  fold induction at 50 µM: 1.1
[2]; planktonic P. aeruginosa, 50 μM final drug concentration, positive cutoff 3-fold increase, read-out: AK-based Prestwick library screening result, P. aeruginosa (fold increase in extracellular AK activity)
  fold induction at 50 µM: 0.9
[3]; planktonic A. baumannii, 50 μM final drug concentration, positive cutoff 3-fold increase, read-out: AK-based Prestwick library screening result, A. baumannii (fold increase in extracellular AK activity)
  fold induction at 50 µM: 1.1
[4]; planktonic S. aureus, 50 μM final drug concentration, positive cutoff 3-fold increase, read-out: AK-based Prestwick library screening result, S. aureus (fold increase in extracellular AK activity)
  fold induction at 50 µM: 1.1
[5]; planktonic E. coli, 50 μM final drug concentration, positive cutoff 3-fold increase, read-out: AK-based Prestwick library screening result, E. coli (fold increase in extracellular AK activity)
  fold induction at 50 µM: 1
[6]; planktonic E. faecium, 50 μM final drug concentration, positive cutoff 3-fold increase, read-out: AK-based Prestwick library screening result, E. faecium (fold increase in extracellular AK activity)
  fold induction at 50 µM: 1
[7]; planktonic E. cloacae, 50 μM final drug concentration, positive cutoff 3-fold increase, read-out: AK-based Prestwick library screening result, E. cloacae (fold increase in extracellular AK activity)
  fold induction at 50 µM: 1.7

## CS(=O)(=O)Nc1ccc([N+](=O)[O-])cc1Oc1ccccc1 [Nimesulide]
[1]; read-out: AK-based Prestwick Library Screening Results, K. pneumoniae (increase in extracellular AK activity)
  fold induction at 50 µM: 0.7
[2]; read-out: AK-based Prestwick Library Screening Results, P. aeruginosa (increase in extracellular AK activity)
  fold induction at 50 µM: 0.9
[3]; read-out: AK-based Prestwick Library Screening Results, A. baumannii (increase in extracellular AK activity)
  fold induction at 50 µM: 0.9
[4]; read-out: AK-based Prestwick Library Screening Results, S. aureus (increase in extracellular AK activity)
  fold induction at 50 µM: 0.7
[5]; read-out: AK-based Prestwick Library Screening Results, E. coli (increase in extracellular AK activity)
  fold induction at 50 µM: 0.9
[6]; read-out: AK-based Prestwick Library Screening Results, E. faecium (increase in extracellular AK activity)
  fold induction at 50 µM: 0.8
[7]; read-out: AK-based Prestwick Library Screening Results, E. cloacae (increase in extracellular AK activity)
  fold induction at 50 µM: 1.4

## O=C(O)c1cccnc1Nc1cccc(C(F)(F)F)c1 [Niflumic acid]
[1]; 50 μM final drug concentration, 384-well format, cutoff for positive-scoring molecules 3-fold increase, read-out: AK-based Prestwick Library Screening Results, K. pneumoniae (increase in extracellular AK activity)
  fold induction at 50 µM: 0.6
[2]; 50 μM final drug concentration, 384-well format, cutoff for positive-scoring molecules 3-fold increase, read-out: AK-based Prestwick Library Screening Results, P. aeruginosa (increase in extracellular AK activity)
  fold induction at 50 µM: 0.7
[3]; 50 μM final drug concentration, 384-well format, cutoff for positive-scoring molecules 3-fold increase, read-out: AK-based Prestwick Library Screening Results, A. baumannii (increase in extracellular AK activity)
  fold induction at 50 µM: 0.7
[4]; 50 μM final drug concentration, 384-well format, cutoff for positive-scoring molecules 3-fold increase, read-out: AK-based Prestwick Library Screening Results, S. aureus (increase in extracellular AK activity)
  fold induction at 50 µM: 0.7
[5]; 50 μM final drug concentration, 384-well format, cutoff for positive-scoring molecules 3-fold increase, read-out: AK-based Prestwick Library Screening Results, E. coli (increase in extracellular AK activity)
  fold induction at 50 µM: 0.6
[6]; 50 μM final drug concentration, 384-well format, cutoff for positive-scoring molecules 3-fold increase, read-out: AK-based Prestwick Library Screening Results, E. faecium (increase in extracellular AK activity)
  fold induction at 50 µM: 0.9
[7]; 50 μM final drug concentration, 384-well format, cutoff for positive-scoring molecules 3-fold increase, read-out: AK-based Prestwick Library Screening Results, E. cloacae (increase in extracellular AK activity)
  fold induction at 50 µM: 0.8

## CN(C(=O)CN(CCO)CC(=O)N(C)C(C)(C)Cc1ccccc1)C(C)(C)Cc1ccccc1 [Oxethazaine]
[1]; planktonic K. pneumoniae, 50 μM final drug concentration, 384-well, cutoff for positive-scoring molecules 3-fold increase, read-out: AK-based Prestwick Library Screening Results: K. pneumoniae (increase in extracellular AK activity)
  fold induction at 50 µM: 1.5
[2]; planktonic P. aeruginosa, 50 μM final drug concentration, 384-well, cutoff for positive-scoring molecules 3-fold increase, read-out: AK-based Prestwick Library Screening Results: P. aeruginosa (increase in extracellular AK activity)
  fold induction at 50 µM: 1
[3]; planktonic A. baumannii, 50 μM final drug concentration, 384-well, cutoff for positive-scoring molecules 3-fold increase, read-out: AK-based Prestwick Library Screening Results: A. baumannii (increase in extracellular AK activity)
  fold induction at 50 µM: 4.2
[4]; planktonic S. aureus, 50 μM final drug concentration, 384-well, cutoff for positive-scoring molecules 3-fold increase, read-out: AK-based Prestwick Library Screening Results: S. aureus (increase in extracellular AK activity)
  fold induction at 50 µM: 1
[5]; planktonic E. coli, 50 μM final drug concentration, 384-well, cutoff for positive-scoring molecules 3-fold increase, read-out: AK-based Prestwick Library Screening Results: E. coli (increase in extracellular AK activity)
  fold induction at 50 µM: 1.4
[6]; planktonic E. faecium, 50 μM final drug concentration, 384-well, cutoff for positive-scoring molecules 3-fold increase, read-out: AK-based Prestwick Library Screening Results: E. faecium (increase in extracellular AK activity)
  fold induction at 50 µM: 1
[7]; planktonic E. cloacae, 50 μM final drug concentration, 384-well, cutoff for positive-scoring molecules 3-fold increase, read-out: AK-based Prestwick Library Screening Results: E. cloacae (increase in extracellular AK activity)
  fold induction at 50 µM: 1.5

## CC(=O)SCC(Cc1ccccc1)C(=O)NCC(=O)OCc1ccccc1 (stereo not drawn) [Racecadotril]
[1]; [8]
  fold induction at 50 µM: 1.1
[2]; [9]
  fold induction at 50 µM: 1.2
[3]; [10]
  fold induction at 50 µM: 1.3
[4]; [11]
  fold induction at 50 µM: 1.9
[5]; [12]
  fold induction at 50 µM: 1.2
[6]; [13]
  fold induction at 50 µM: 1
[7]; [14]
  fold induction at 50 µM: 1.5

## COC(=O)C1=C(C)NC(C)=C(C(=O)OCCN(C)Cc2ccccc2)C1c1cccc([N+](=O)[O-])c1 (stereo not drawn) [Nicardipine hydrochloride]
[1]; [8]
  fold induction at 50 µM: 1
[2]; [9]
  fold induction at 50 µM: 1.1
[3]; [10]
  fold induction at 50 µM: 1.3
[4]; [11]
  fold induction at 50 µM: 0.6
[5]; [12]
  fold induction at 50 µM: 1.2
[6]; [13]
  fold induction at 50 µM: 1.1
[7]; [14]
  fold induction at 50 µM: 1.4

## CCN1C(=O)NC(c2ccccc2)C1=O (stereo not drawn) [Ethotoin]
[1]; 50 μM final drug concentration, cutoff for positive-scoring molecules 3-fold increase, read-out: AK-based Prestwick Library Screening Results, K. pneumoniae (fold increase in extracellular AK activity)
  fold induction at 50 µM: 1
[2]; 50 μM final drug concentration, cutoff for positive-scoring molecules 3-fold increase, read-out: AK-based Prestwick Library Screening Results, P. aeruginosa (fold increase in extracellular AK activity)
  fold induction at 50 µM: 0.9
[3]; 50 μM final drug concentration, cutoff for positive-scoring molecules 3-fold increase, read-out: AK-based Prestwick Library Screening Results, A. baumannii (fold increase in extracellular AK activity)
  fold induction at 50 µM: 1.1
[4]; 50 μM final drug concentration, cutoff for positive-scoring molecules 3-fold increase, read-out: AK-based Prestwick Library Screening Results, S. aureus (fold increase in extracellular AK activity)
  fold induction at 50 µM: 1.2
[5]; 50 μM final drug concentration, cutoff for positive-scoring molecules 3-fold increase, read-out: AK-based Prestwick Library Screening Results, E. coli (fold increase in extracellular AK activity)
  fold induction at 50 µM: 1.2
[6]; 50 μM final drug concentration, cutoff for positive-scoring molecules 3-fold increase, read-out: AK-based Prestwick Library Screening Results, E. faecium (fold increase in extracellular AK activity)
  fold induction at 50 µM: 1
[7]; 50 μM final drug concentration, cutoff for positive-scoring molecules 3-fold increase, read-out: AK-based Prestwick Library Screening Results, E. cloacae (fold increase in extracellular AK activity)
  fold induction at 50 µM: 1.6

## CC[C@@]1([C@@H]2O[C@@H]([C@H]3O[C@@](O)(CO)[C@H](C)C[C@@H]3C)C[C@@H]2C)CC[C@H]([C@]2(C)CC[C@]3(C[C@H](O)[C@@H](C)[C@@H]([C@@H](C)[C@@H](OC)[C@H](C)C(=O)O)O3)O2)O1 [Monensin sodium salt]
[1]; 50 μM final drug concentration, planktonic, cutoff for positive-scoring molecules 3-fold increase, read-out: AK-based Prestwick Library Screening Results, K. pneumoniae (fold increase in extracellular AK activity)
  fold induction at 50 µM: 0.6
[2]; 50 μM final drug concentration, planktonic, cutoff for positive-scoring molecules 3-fold increase, read-out: AK-based Prestwick Library Screening Results, P. aeruginosa (fold increase in extracellular AK activity)
  fold induction at 50 µM: 0.9
[3]; 50 μM final drug concentration, planktonic, cutoff for positive-scoring molecules 3-fold increase, read-out: AK-based Prestwick Library Screening Results, A. baumannii (fold increase in extracellular AK activity)
  fold induction at 50 µM: 0.7
[4]; 50 μM final drug concentration, planktonic, cutoff for positive-scoring molecules 3-fold increase, read-out: AK-based Prestwick Library Screening Results, S. aureus (fold increase in extracellular AK activity)
  fold induction at 50 µM: 0.7
[5]; 50 μM final drug concentration, planktonic, cutoff for positive-scoring molecules 3-fold increase, read-out: AK-based Prestwick Library Screening Results, E. coli (fold increase in extracellular AK activity)
  fold induction at 50 µM: 0.9
[6]; 50 μM final drug concentration, planktonic, cutoff for positive-scoring molecules 3-fold increase, read-out: AK-based Prestwick Library Screening Results, E. faecium (fold increase in extracellular AK activity)
  fold induction at 50 µM: 1.1
[7]; 50 μM final drug concentration, planktonic, cutoff for positive-scoring molecules 3-fold increase, read-out: AK-based Prestwick Library Screening Results, E. cloacae (fold increase in extracellular AK activity)
  fold induction at 50 µM: 1.1
